From publication PMC6434189, “Peperomin E and its orally bioavailable analog induce oxidative stress-mediated apoptosis of acute myeloid leukemia progenitor cells by targeting thioredoxin reductase” (Redox Biology, 2019)

Experiments:
[1] = design: method as in earlier work; details: formulated with phosphate acid; cited from earlier work
GCLC = target: T1, GCLC (Homo sapiens, UniProt P48506); assay: BLI binding assay, GCLC
T1 construct: purchased Abcam
T1 sequence (P48506 1-637): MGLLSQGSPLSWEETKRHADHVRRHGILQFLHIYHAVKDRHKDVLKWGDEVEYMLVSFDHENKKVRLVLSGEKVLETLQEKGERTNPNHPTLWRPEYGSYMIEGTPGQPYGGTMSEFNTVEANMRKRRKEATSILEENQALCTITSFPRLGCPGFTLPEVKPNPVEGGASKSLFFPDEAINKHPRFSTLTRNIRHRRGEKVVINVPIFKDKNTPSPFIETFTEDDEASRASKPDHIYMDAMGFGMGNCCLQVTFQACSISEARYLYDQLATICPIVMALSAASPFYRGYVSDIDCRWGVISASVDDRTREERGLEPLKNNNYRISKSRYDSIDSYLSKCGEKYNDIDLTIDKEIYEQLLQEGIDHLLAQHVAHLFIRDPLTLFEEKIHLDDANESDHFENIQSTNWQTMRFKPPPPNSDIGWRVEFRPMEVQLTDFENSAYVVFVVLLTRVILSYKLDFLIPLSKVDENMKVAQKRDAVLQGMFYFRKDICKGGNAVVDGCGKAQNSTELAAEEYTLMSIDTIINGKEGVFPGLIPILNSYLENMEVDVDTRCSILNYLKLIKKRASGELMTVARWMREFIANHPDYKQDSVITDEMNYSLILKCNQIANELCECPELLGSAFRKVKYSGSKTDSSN
Protocol: The binding kinetics of PepE or PepA to purified recombinant proteins were determined using BLI on an Octet RED 96 system (ForteBio, Shanghai, China) following the manufacturer's protocol. All interaction analyses were performed at 25 °C in PBS with 0.2% DMSO. Purified recombinant proteins (0.9 μM, the TrxR1 full length and TrxR1 protein fragment were pre-reduced by 400 μM of NADPH before test) were pre-labeled with biotin using […] (Abcam) following the manufacturer's instruction. Loading of the Dip and Read Super Streptavidin (SSA) Biosensors (ForteBio) were conducted by exposing biotinylated proteins to biosensor tips for 2 h. The 96-well microplates used in the Octet were filled with 200 μL sample or buffer per well and agitated at 1000 rpm. The loaded biosensors were washed in buffer for 600 s and transferred to wells containing PepE at concentrations of 0.625, 1.25, 2.5, 5, and 10 μM or PepA at concentrations of 1.25, 2.5, 5, 10 and 20 μM, respectively, in the buffer. […] Reference measurements were conducted using the buffer instead of PepE (or PepA). A parallel set of SA unloaded biosensors was prepared to act as a control. The sample-sensorgrams were corrected by subtracting the double reference curve. Kinetic parameters (Kon and Kdis) and affinity (KD) were determined from a global fit to a 1:1 binding model of the data between proteins and PepE using Octet software (ForteBio).

Sec residue in TrxR1 = target: T2, Sec residue in TrxR1 (Homo sapiens, UniProt Q16881); assay: BIAM labeling assay; format: biochemical; details: pH 6.5; PepE 1, 5, 10 μM; DNCB 5 μM
T2 construct: purchased Abcam ab204206
T2 sequence (Q16881 1-499 isoform Q16881-5): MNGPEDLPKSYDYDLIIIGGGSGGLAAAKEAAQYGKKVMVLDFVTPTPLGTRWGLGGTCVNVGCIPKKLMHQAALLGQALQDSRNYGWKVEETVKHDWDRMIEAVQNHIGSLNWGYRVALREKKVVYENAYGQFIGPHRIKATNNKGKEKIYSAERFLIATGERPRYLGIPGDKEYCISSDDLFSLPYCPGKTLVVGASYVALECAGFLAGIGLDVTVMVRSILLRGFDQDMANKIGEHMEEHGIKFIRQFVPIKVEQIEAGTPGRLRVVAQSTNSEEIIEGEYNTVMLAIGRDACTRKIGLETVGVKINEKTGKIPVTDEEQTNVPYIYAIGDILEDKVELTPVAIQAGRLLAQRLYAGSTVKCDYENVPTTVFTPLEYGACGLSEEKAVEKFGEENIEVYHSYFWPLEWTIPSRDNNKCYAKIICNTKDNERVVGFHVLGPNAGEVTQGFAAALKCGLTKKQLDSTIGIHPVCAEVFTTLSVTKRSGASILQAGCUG
Protocol: To further assess whether the Sec residue in TrxR1 was the modified site of PepE. The BIAM labeling assay was performed according to previous report. Briefly, 100 μM BIAM stock solution in 100 mM Tris-HCl, 1 mM EDTA buffer (pH = 6.5) was freshly prepared before each test. The TrxR1 protein (1 μM) was incubated with different concentrations (1, 5, 10 μM) of PepE or 5 μM of DNCB (positive control) and DMSO (negative control) in 50 mM Tris-HCl, 1 mM EDTA buffer (pH = 7.5) and 400 μM NADPH at 37 °C. After incubation, 4 μL of the reaction mixture was withdrawn and added mixed with 20 μM of BIAM solution in 100 mM Tris-HCl, 1 mM EDTA assay buffer (pH = 6.5) for 30 min at 37 °C to allow selective alkylation of free Sec residues. The reaction was stopped by adding the IAA solution (final concentration 50 mM). The samples were then denatured in SDS buffer, boiled and subjected to SDS-PAGE and western-blotting on a 7.5% gel, and the separated proteins were transferred to nitrocellulose membrane. The enzymes labeled with BIAM were detected with HRP-conjugated streptavidin and enhanced chemiluminescence detection. The bands were analyzed using Gel-pro 32 software.

[2] = tested on: Trx-ASK1 complex in KG-1a CD34+ cells; assay: Trx1 immunoprecipitation, Trx-ASK1 interaction; format: cell-based, human; details: 0.5, 2.0, 5.0 μM
Protocol: The KG-1a CD34^+ cells were treated with PepE or vehicle control (DMSO) for 12 h. The cellular proteins were extracted by RIPA buffer and quantified by the Bradford method. For each cell lysate, a volume containing 1 mg protein was mixed with 1 μg anti-Trx1 antibody coupled to 20 μL protein G-Sepharose (Abcam) and tumbled at 4 °C for 2 h. The Sepharose beads were then washed three times at 4 °C with a washing buffer containing 50 mM Tris (pH = 7.4), 0.5 M NaCl, and 1 mM EGTA. The immunoprecipitated proteins were eluted and denatured by 2×SDS-PAGE loading buffer and then boiled for 5 min. The eluted solutions were then centrifuged at 12000 g; the supernatants were collected and stored at −20 °C for SDS-PAGE and western blot analyses.

Row | Structure (SMILES) | increased solubility in water compared to PepE [1] | Kd (GCLC) [µM] | kon (GCLC) [M⁻¹ s⁻¹] | koff (GCLC; read-out: Kdis) [s⁻¹] | BIAM alkylation of Sec residue of TrxR1 (Sec residue in TrxR1) | amount of ASK1 bound to Trx1 [2]
1 | COc1cc(C(c2cc(OC)c3c(c2)OCO3)[C@@H]2COC(=O)[C@H]2CN(C)CCO)cc2c1OCO2 [DMAPE, (2S,3S)-6-Methyl (hydroxyethyl) amino-2,6-dihydropeperomin E] | more than 1000 fold | – | – | – | – | –
2 | C=C1C(=O)OC[C@H]1C(c1cc(OC)c2c(c1)OCO2)c1cc(OC)c2c(c1)OCO2 [PepE, Peperomin E] | – | 1340 | 465 | 0.625 | significantly block | dose-dependent decrease
